Calls of active or inactive are those of the source. The rule behind the calls is not given here.
System: GENE-TOX genotoxicity assays, various organisms and cells
Test: GENE-TOX mutagenicity studies
Conditions: for call: Assay Type: In vivo carcinogenicity studies
From the text: GENE-TOX provides genetic toxicology (mutagenicity) test data from expert peer review of open scientific literature for more than 3,000 chemicals from the United States Environmental Protection Agency (EPA). GENE-TOX was established to select assay systems for evaluation, review data in the scientific literature, and recommend proper testing protocols and evaluation procedures for these systems.
GENE-TOX covers the years 1991 - 1998. It is no longer updated.
This is an archive assay for GENE-TOX mutagenicity studies.

[1] = Species/Cell Type: Drosophila melanogaster, Assay Type: Sex-linked recessive lethal gene mutation, Assay Code: SRLT, Evaluation Type: Evaluation A (Pre-1980)
[2] = Species/Cell Type: Salmonella typhimurium (one or more of the five standard strains: TA98, TA100, TA1535, TA1537, and TA1538), Assay Type: Histidine reverse gene mutation, Ames assay, Assay Code: SALT, Evaluation Type: Evaluation A (Pre-1980)
[3] = Species/Cell Type: Salmonella typhimurium (one or more of the five standard strains: TA98, TA100, TA1535, TA1537, and TA1538), Assay Type: Histidine reverse gene mutation, Ames assay, Assay Code: SAL+, Evaluation Type: Evaluation A (Pre-1980)
[4] = Species/Cell Type: Bacillus subtilis (H17 vs M45), Assay Type: Rec-assay, spot test, DNA effects (bacterial DNA repair), Assay Code: REWT, Evaluation Type: Evaluation A (Pre-1980)
[5] = Species/Cell Type: Drosophila melanogaster, Assay Type: Sex-linked recessive lethal gene mutation, Assay Code: SRL-, Evaluation Type: Evaluation A (Pre-1980)
[6] = Species/Cell Type: Escherichia coli WP2 UVRA, Assay Type: Tryptophan reverse gene mutation, Assay Code: WPU-*, Activation: With metabolic activation, Evaluation Type: Evaluation A (Pre-1980)
[7] = Species/Cell Type: Escherichia coli polA (W3119 vs P3478), Assay Type: Rec-assay, DNA effects (bacterial DNA repair), Assay Code: RE1T, Evaluation Type: Evaluation A (Pre-1980)
[8] = Species/Cell Type: Human diploid fibroblasts, Assay Type: Unscheduled DNA synthesis (UDS) in vitro, DNA effects, Assay Code: UDH-, Evaluation Type: Evaluation A (Pre-1980)
[9] = Species/Cell Type: Human, Assay Type: Sister-chromatid exchange (SCE) in vitro, Assay Code: SC1+D, Dose Response: With dose response, Evaluation Type: Evaluation B (Post-1980)
[10] = Species/Cell Type: Nonhuman, Assay Type: Sister-chromatid exchange (SCE) in vitro, Assay Code: SC2+D, Dose Response: With dose response, Evaluation Type: Evaluation B (Post-1980)
[11] = Species/Cell Type: Saccharomyces cerevisiae, Assay Type: Mitotic recombination or gene conversion, Assay Code: YEH+, Evaluation Type: Evaluation A (Pre-1980)
[12] = Species/Cell Type: Salmonella typhimurium (one or more of the five standard strains: TA98, TA100, TA1535, TA1537, and TA1538), Assay Type: Histidine reverse gene mutation, Ames assay, Assay Code: SAL-, Evaluation Type: Evaluation A (Pre-1980)

SMILES: O=C(C#Cc1ccc([N+](=O)[O-])o1)NC1CCCCC1
- mutagenic call (Species/Cell Type: Neurospora crassa, Assay Type: Forward gene mutation, Assay Code: NEF-, Evaluation Type: Evaluation A (Pre-1980)): inactive; negative

SMILES: [N-]=[N+]=Nc1ccc2c(c1)Cc1ccccc1-2
- mutagenic call (Species/Cell Type: Mouse (C3H/10T1/2) cells, Assay Type: Cell transformation, Assay Code: CTH-, Evaluation Type: Evaluation A (Pre-1980)): inactive; negative

SMILES: [Cd]
- mutagenic call (Species/Cell Type: Human lymphocytes or leukocytes, Assay Type: Chromosome aberrations in vivo, Assay Code: CY8T, Evaluation Type: Evaluation A (Pre-1980)): no conclusion
- call (Species/Cell Type: Nonhuman, Assay Code: CCG+L, Evaluation Type: Evaluation A (Pre-1980)): active; positive

SMILES: Cc1c2ccccc2c(C(=O)O)c2ccc3ccccc3c12
- mutagenic call [1]: no conclusion

SMILES: c1cc2ccc3ccc4c5c(c6c(c1CCC6)c2c35)CCC4
- mutagenic call [2]: no conclusion

SMILES: COC(=O)C1=CCCN(N=O)C1
- mutagenic call [1]: no conclusion
- mutagenic call (Species/Cell Type: Salmonella typhimurium (one or more of the five standard strains: TA98, TA100, TA1535, TA1537, and TA1538), Assay Type: Histidine reverse gene mutation, Ames assay, Assay Code: SAL+*, Activation: With metabolic activation, Evaluation Type: Evaluation A (Pre-1980)): active; positive

SMILES: C=CCn1c(Cl)c(CC)c(=O)n(CC)c1=O
- mutagenic call [1]: no conclusion

SMILES: ONC1CCCCC1
- mutagenic call [1]: no conclusion
- mutagenic call (Species/Cell Type: Drosophila melanogaster, Sex: Male, Assay Type: Heritable translocation test, chromosome aberrations, Assay Code: DHTT, Evaluation Type: Evaluation A (Pre-1980)): no conclusion
- mutagenic call (Species/Cell Type: Human lymphocytes or leukocytes, Assay Type: Chromosome aberrations in vitro, Assay Code: CY7-, Evaluation Type: Evaluation A (Pre-1980)): inactive; negative

SMILES: O=C1c2ccccc2C(=O)c2c1cc(O)c(CO)c2O
- mutagenic call [3]: active; positive

SMILES: CCCCC=O
- mutagenic call (Species/Cell Type: Human lymphocytes, Assay Type: Sister-chromatid exchange (SCE) in vitro, Assay Code: SCL+, Evaluation Type: Evaluation B (Post-1980)): active; positive
- mutagenic call (Species/Cell Type: Human, Assay Type: Sister-chromatid exchange (SCE) in vitro, Assay Code: SC1+, Evaluation Type: Evaluation B (Post-1980)): active; positive

SMILES: CCOP(=S)(OCC)SCSCC
- mutagenic call [4]: no conclusion
- mutagenic call [5]: inactive; negative
- mutagenic call [6]: inactive; negative
- mutagenic call [7]: no conclusion
- mutagenic call (Species/Cell Type: Hordeum vulgare (barley), Assay Type: Chromosome aberrations, Assay Code: HOC+D, Dose Response: With dose response, Evaluation Type: Evaluation A (Pre-1980)): active; positive
- mutagenic call [8]: inactive; negative
- mutagenic call [9]: active; positive
- mutagenic call (Species/Cell Type: Mammalian polychromatic erythrocytes, Assay Type: Micronucleus test, chromosome aberrations, Assay Code: MNT+U, Dose Response: Unconfirmed positive response, Evaluation Type: Evaluation B (Post-1980)): active; positive
- mutagenic call (Species/Cell Type: Saccharomyces cerevisiae, Assay Type: Mitotic recombination or gene conversion, Assay Code: YEH-, Evaluation Type: Evaluation A (Pre-1980)): inactive; negative
- mutagenic call [2]: no conclusion

SMILES: CN(N=O)C(=O)Nc1ccc(Br)cc1
- mutagenic call [10]: active; positive

SMILES: O=C1CN=C(c2ccccc2Cl)c2cc([N+](=O)[O-])ccc2N1
- mutagenic call (Species/Cell Type: Salmonella typhimurium, Assay Type: Forward and reverse gene mutation, body fluid assay, Assay Code: BFU-, Evaluation Type: Evaluation A (Pre-1980)): inactive; negative
- mutagenic call (Species/Cell Type: Salmonella typhimurium, Assay Type: Forward and reverse gene mutation, host-mediated assay, Assay Code: HMA-, Evaluation Type: Evaluation A (Pre-1980)): inactive; negative

SMILES: COC(C)C(O)(C(=O)OCC1=CC[N+]2([O-])CC[C@H](O)[C@H]12)C(C)C (stereo partly drawn)
- mutagenic call (Species/Cell Type: Drosophila melanogaster, Assay Type: Sex-linked recessive lethal gene mutation, Assay Code: SRL+, Evaluation Type: Evaluation A (Pre-1980)): active; positive

SMILES: Oc1c(Oc2ccc(Cl)cc2Cl)cc(Cl)c(Cl)c1Cl
- mutagenic call (Species/Cell Type: Human lymphocytes, Assay Type: Sister-chromatid exchange (SCE) in vitro, Assay Code: SCLT, Evaluation Type: Evaluation B (Post-1980)): no conclusion
- mutagenic call (Species/Cell Type: Human, Assay Type: Sister-chromatid exchange (SCE) in vitro, Assay Code: SC1T, Evaluation Type: Evaluation B (Post-1980)): no conclusion
- mutagenic call (Species/Cell Type: Mouse, Sex: Female, Assay Type: Spot test, gene mutation, Assay Code: MSTT, Evaluation Type: Evaluation A (Pre-1980)): no conclusion
- mutagenic call (Species/Cell Type: Saccharomyces cerevisiae, Assay Type: Forward gene mutation, Assay Code: YEF+, Evaluation Type: Evaluation A (Pre-1980)): active; positive
- mutagenic call (Species/Cell Type: Saccharomyces cerevisiae, Assay Type: Mitotic recombination or gene conversion, Assay Code: YEC-, Evaluation Type: Evaluation A (Pre-1980)): inactive; negative
- mutagenic call [11]: active; positive

SMILES: ClCc1c2ccccc2c(CCl)c2ccccc12
- mutagenic call [3]: active; positive

SMILES: O=S(=O)(O)c1ccccc1/C=C\c1ccc(-c2ccc(/C=C\c3ccccc3S(=O)(=O)O)cc2)cc1
- mutagenic call (Species/Cell Type: Rodents, Sex: Male, Assay Type: Dominant lethal test, Assay Code: DLT-, Evaluation Type: Evaluation A (Pre-1980)): inactive; negative
- mutagenic call (Species/Cell Type: Saccharomyces cerevisiae, Assay Type: Mitotic recombination or gene conversion, Assay Code: YECT, Evaluation Type: Evaluation A (Pre-1980)): no conclusion
- mutagenic call [2]: no conclusion

SMILES: CC(C)(C)OO
- mutagenic call (Species/Cell Type: Neurospora crassa, Assay Type: Reverse gene mutation, Assay Code: NER+, Evaluation Type: Evaluation A (Pre-1980)): active; positive
- mutagenic call (Species/Cell Type: Saccharomyces cerevisiae, Assay Type: Mitotic recombination or gene conversion, Assay Code: YEC+, Evaluation Type: Evaluation A (Pre-1980)): active; positive
- mutagenic call (Species/Cell Type: Vicia faba, Assay Type: Chromosome aberrations, Assay Code: VIC+, Evaluation Type: Evaluation A (Pre-1980)): active; positive

SMILES: COC/C=C(C)/C=C/C=C(C)/C=C/C1=C(C)CCCC1(C)C
- mutagenic call [9]: active; positive

SMILES: C1CN(P2(N3CC3)=NP(N3CC3)(N3CC3)=NP(N3CC3)(N3CC3)=N2)CCO1 (stereo not drawn)
- mutagenic call (Species/Cell Type: Human lymphocytes or leukocytes, Assay Type: Chromosome aberrations in vitro, Assay Code: CY7+, Evaluation Type: Evaluation A (Pre-1980)): active; positive
- mutagenic call (Species/Cell Type: Human lymphocytes, Assay Type: Sister-chromatid exchange (SCE) in vitro, Assay Code: SCL+D, Dose Response: With dose response, Evaluation Type: Evaluation B (Post-1980)): active; positive
- mutagenic call [9]: active; positive
- mutagenic call [10]: active; positive
- mutagenic call (Species/Cell Type: Rodents, Sex: Male, Assay Type: Dominant lethal test, Assay Code: DLT+, Evaluation Type: Evaluation A (Pre-1980)): active; positive

SMILES: CS(=O)(=O)c1ccc([C@H](O)[C@H](CO)NC(=O)C(Cl)Cl)cc1
- mutagenic call [2]: no conclusion

SMILES: O=c1cnn([C@@H]2O[C@H](CO)[C@@H](O)[C@H]2O)c(=O)[nH]1
- mutagenic call [1]: no conclusion
- mutagenic call (Species/Cell Type: Rabbit, Sex: Male, Assay Type: Sperm morphology, Assay Code: SPR+, Evaluation Type: Evaluation A (Pre-1980)): active; positive

SMILES: O=C([O-])[O-].[Cd+2]
- mutagenic call (Species/Cell Type: Nonhuman, Assay Type: Sister-chromatid exchange (SCE) in vitro, Assay Code: SC2+, Evaluation Type: Evaluation B (Post-1980)): active; positive

SMILES: O=Nc1c(O)c(S(=O)(=O)O)cc2cc(S(=O)(=O)O)ccc12
- mutagenic call (Species/Cell Type: Glycine max (soybean), Assay Type: Gene mutation, Assay Code: GLM-, Evaluation Type: Evaluation A (Pre-1980)): inactive; negative

SMILES: Oc1ccc2ccccc2c1N=Nc1cc[c]([Hg+])cc1
- mutagenic call [2]: no conclusion

SMILES: O=C(O)CN(CCN(CC(=O)O)CC(=O)O)CC(=O)O
- mutagenic call (Species/Cell Type: Allium cepa, Assay Type: Chromosome aberrations, Assay Code: ALC+, Evaluation Type: Evaluation A (Pre-1980)): active; positive
- mutagenic call (Species/Cell Type: Arabidopsis species, Assay Type: Gene mutation, Assay Code: ARM-, Evaluation Type: Evaluation A (Pre-1980)): inactive; negative
- call (Species/Cell Type: Nonhuman, Assay Code: CCG-, Evaluation Type: Evaluation A (Pre-1980)): inactive; negative
- mutagenic call [12]: inactive; negative

SMILES: COP(=O)(NC(C)=O)SC (stereo not drawn)
- mutagenic call [4]: no conclusion
- mutagenic call [5]: inactive; negative
- mutagenic call [6]: inactive; negative
- mutagenic call [7]: no conclusion
- mutagenic call [8]: inactive; negative
- mutagenic call (Species/Cell Type: Mammalian polychromatic erythrocytes, Assay Type: Micronucleus test, chromosome aberrations, Assay Code: MNTT, Evaluation Type: Evaluation B (Post-1980)): no conclusion
- mutagenic call (Species/Cell Type: Neurospora crassa, Assay Type: Aneuploidy, chromosome aberrations, Assay Code: NEN-, Evaluation Type: Evaluation A (Pre-1980)): inactive; negative
- mutagenic call (Species/Cell Type: Nonhuman, Assay Type: Sister-chromatid exchange (SCE) in vivo, Assay Code: SC3T, Evaluation Type: Evaluation B (Post-1980)): no conclusion
- mutagenic call [11]: active; positive
- mutagenic call [12]: inactive; negative
